In US20230057984A1, “NORMALIZATION OF CULTURE OF CORNEAL ENDOTHELIAL CELLS” (KYOTO PREFECTURAL PUBLIC UNIVERSITY CORPORATION, priority 2011, published 2023) one finds cell form data, which are given here for one molecule.

The assay concerns Human corneal endothelial cells. Put plainly: Culture of human corneal endothelial cells with SB431542, cell form (Example 5). The assay is classed as cell-based. The conditions noted are these: HCEC, base culture medium with SB431542 1 μmol/L; SB431542-free cells transformed in a fibroblastic manner, multi-layered. As for the experimental part: • Cynomolgus monkey corneal endothelial cells (MCEC; source of supply and culturing method): the MCECs were cultured by the improved-type protocol described previously [Koizumi N, et al. (2007) Invest Ophthalmol Vis Sci 48: 4519-4526], [Li W, et al. (2007) Invest Ophthalmol Vis Sci 48: 614-620]. Briefly speaking, eyeballs of cynomolgus monkeys, which were humanely killed for another purpose, were purchased (Nissei Bilis Co., Ltd., Ohtsu, Japan and Keari Co., Ltd., Wakayama, Japan) (the method is described above). The Descemet's membrane including corneal endothelial cells were exfoliated, and the corneal endothelial cells were mechanically exfoliated together with basement membranes, followed by treatment using dispase or collagenase (ROCHE catalog number: 10 103 586 001) and then primary culture. Typically, treatment was performed using 1 mg/mL collagenase A (Roche Applied Science, Penzberg, Germany) at 37° C. for 2 hours. For the culture medium, DMEM (INVITROGEN catalog number 12320) was used with 10% FBS (BIOWEST, catalog number: S1820-500) and 2 ng/ml basic FGF (INVITROGEN, catalog number: 13256-029) added thereto. […] In addition, after the cells were fixed, immunostaining was performed using ZO-1, Na^+/K^+-ATPase as a function-associated marker, followed by observation through a fluorescence microscope. […]

Molecules are shown by their SMILES.

As for `NC(=O)c1ccc(-c2nc(-c3ccc4c(c3)OCO4)c(-c3ccccn3)[nH]2)cc1` [SB431542], the cell form entry is “a layer of cells with a small difference in size of a polygonal shape”.
